Laboratory results: US8377455B2, “Biosurfactant composition produced by a new Bacillus licheniforms strain, uses and products thereof” (priority 2008, dated 2013)
Like-named read-outs stand apart in the source and are kept apart here.

Columns and labels:
[1] = system: planktonic E. coli CFT073; test: Susceptibility of planktonic cultures to antibiotics with or without V9T14 (MIC by OD650, MBC by viable cell count); assay type: cell-based, Escherichia coli; details: for change of MBC99.99% by V9T14 / effect of V9T14 on planktonic killing: 5 μg/mL V9T14; for MIC / MBC: Escherichia coli; for MBC: read-out: MBC99.99%, Ab; for concentration at which complete eradication of planktonic cells was observed: antibiotic plus 5 μg/mL V9T14; for MBC99.99%, AbBs: antibiotic plus 5 μg/mL V9T14 biosurfactant; for increase of planktonic killing by V9T14: at 2 μg/mL antibiotic
Protocol: (§1) Antibiotics were serially diluted (log2) using 0.9% saline in a 96-well microtiter plate, and then a solution of biosurfactant was added to each well to reach a final concentration of 5 μg/mL.
(§2) E. coli CFT073 biofilms were grown on the CBD at 37° C. for 24 h in a rotatory shaker at 130 rpm, as described above. Then CBD lid was rinsed twice with 0.9% saline, exposed to the antibiotics and antibiotic plus biosurfactant microtiter plate and incubated at 37° C., 125 rpm for 24 h. After exposure, the CBD was removed and the 96-well microtiter plate was used to estimate minimal inhibitory concentration (MIC) and minimal bactericidal concentration (MBC99.99%) values. For MIC value, the plate was read using a spectrophotometer at 650 nm, MIC was defined as the lowest concentration not presenting turbidity; according to the guidelines of the American Clinical Laboratory Standards Institute, the minimum bactericidal concentration (MBC) is conventionally defined as a concentration of an antimicrobial agent that kills 3 log10 cells of a bacterial culture (or 99.9% of the bacteria). In our experiments we used a more restrictive criterion, defining the MBC99.99% value, defined as the lowest concentration of the antibiotic activity higher than 4 log10 by viable cell count. Minimal biofilm eradication concentration (MBEC99.9%) was defined as the lowest concentration to eradicate 3 log10 of the viable microorganisms in a biofilm.
(§3) The difference attributed to synergy is expressed in Δ values between the log10 antibiotic cell count reduction and the log10 association value. “Eradication” was defined as no growth in antibiotic-free plates after planktonic culture initially incubated in antibiotic-containing LB broth.

E. coli CFT073 biofilm = test: Susceptibility of 24 h biofilm on CBD to antibiotics with or without V9T14 (MBEC, viable cell count, CLSM); assay type: cell-based, Escherichia coli; details: for MBEC99.9%, Ab: 3 log10 reduction; for MBEC99.9%, AbBs: antibiotic plus 5 μg/mL V9T14 biosurfactant
Protocol: as §1, §2
Pegs were broken from the lid of the CBD using pliers (Harrison et al. 2006) and then rinsed once with 0.9% saline to remove planktonic forms. Prior to examination by CLSM, biofilms were fluorescently stained with acridine orange (AO) (Sigma Chemical Co., St. Louis, Mo., USA). To stain biofilms, pegs were immersed in 0.1% w/v AO in PBS for 5 min at room temperature in the dark. To determine live and dead cell distribution in antibiotic experiments, rinsed biofilms were stained with Syto-9 (6.7 μM) and propidium iodide (40 μM) (Live/Dead® BacLight™ Kit, Molecular Probes, Burlington, ON, Canada) at 30° C. for 30 min. Fluorescently stained biofilms were placed in two drops of 0.9% saline on the surface of a glass coverslip. These pegs were examined using a Leica DM IRE2 spectral confocal and multiphoton microscope with a Leica TCS SP2 acoustic optical beam splitter (AOBS) (Leica Microsystems, Richmond Hill, ON, Canada). To minimize or eliminate artefacts associated with single and/or simultaneous dual wavelength excitation, all dual labelled samples were sequentially scanned, frame-by frame, first at 476 or 488 nm and then at 543 nm. Fluorescence emission Δ was then sequentially collected in the green and red regions of the spectrum, respectively. Line averaging (×2) was used to capture images with reduced noise. A 63× water immersion objective was used in all imaging experiments. Image capture and two dimensional projections of z-stacks were performed using Leica Confocal Software (LCS, Leica Microsystems).
as §3

[2] = 24 h, antibiotic alone, 24 h, OD650, read-out: MIC, Ab
[3] = antibiotic without V9T14 (figure legend), read-out: MIC value used in FIG. 21
[4] = antibiotic alone, 24 h, 4 log10 reduction

Compound | change of MBC99.99% by V9T14 [1] | MIC [1, 2] [µg/mL] | MIC [1, 3] [µg/mL] | MBC [1, 4] [µg/mL] | concentration at which complete eradication of planktonic cells was observed [1] [µg/mL] | MBC99.99%, AbBs ([1]; 24 h) [µg/mL] | biofilm reduction (E. coli CFT073 biofilm; antibiotic alone at 4 μg/mL) [log10] | MBEC99.9%, Ab (E. coli CFT073 biofilm; antibiotic alone, 24 h) [µg/mL] | MBEC99.9%, AbBs (E. coli CFT073 biofilm; 24 h) [µg/mL] | MIC, Ab ([1]; antibiotic alone, 24 h, OD650) [µg/mL] | planktonic population reduction ([1]; antibiotic alone at 1 μg/mL) [log10] | increase of planktonic killing by V9T14 [1] [log10] | effect of V9T14 on planktonic killing [1] | change of MBEC99.9% by V9T14 (E. coli CFT073 biofilm; 5 μg/mL V9T14) | other results
CC1(C)S[C@@H]2[C@H](NC(=O)[C@H](N)c3ccccc3)C(=O)N2[C@H]1C(=O)O [Ampicillin, ampicillin] | not modified | 2 to 4 | 2 | 1 to 2 | 8 | 1 to 2 | 3 | 4 | 0.5 to 1 |  |  |  |  |  | surviving planktonic population ([1]; antibiotic alone up to 16 μg/mL): 10^2 cfu/mL; increase of planktonic killing efficacy by V9T14 ([1]; concentration not given): 2 log10; surviving biofilm population (E. coli CFT073 biofilm; 1 μg/mL antibiotic plus V9T14): 10^1 cfu/peg; biofilm subpopulation remaining viable (E. coli CFT073 biofilm; antibiotic alone, 24 h): 10^3 cfu/peg; concentration at which sessile forms were eradicated (E. coli CFT073 biofilm; antibiotic plus V9T14): 8 µg/mL; effect on adherent biofilm cells (E. coli CFT073 biofilm; association of V9T14 with the antibiotic): complete eradication; enhancement of antibiotic effect on biofilm by V9T14 (E. coli CFT073 biofilm; at 1 μg/mL antibiotic): 4 log10
Cc1nnc(SCC2=C(C(=O)O)N3C(=O)[C@@H](NC(=O)Cn4cnnn4)[C@H]3SC2)s1 [Cefazolin, cefazolin] |  |  | 8 | 16 | 32 | 8 |  |  | 8 | 1 to 2 |  |  |  |  | maximum planktonic killing effect ([1]; 32 μg/mL antibiotic plus V9T14): 8.4 log10; MIC ([1]; 24 h, antibiotic plus 5 μg/mL V9T14, 24 h, OD650, read-out: MIC with V9T14): 8 µg/mL; planktonic killing ([1]; antibiotic alone at 16 μg/mL): more than 4 log10 cfu/mL; maximum planktonic killing effect ([1]; antibiotic alone at 32 μg/mL): 6.9 log10; MIC, Ab ([1]; antibiotic alone, 24 h, OD650, listed as cefazolin): 16 µg/mL; biofilm reduction (E. coli CFT073 biofilm; antibiotic alone, up to highest concentration tested): about 2.2 log10
CO/N=C(\C(=O)N[C@@H]1C(=O)N2C(C(=O)O)=C(CSc3nc(=O)c(O)nn3C)CS[C@H]12)c1csc(N)n1 [Cefriaxone, ceftriaxone] | not modified |  |  |  | 2 | 0.5 to 1 |  | 1 to 2 | 0.5 to 1 | 1 to 2 | 7 | 1.7 |  |  | planktonic population reduction ([1]; antibiotic alone at 0.5 μg/mL): 3 log10; MBC99.99%, Ab [1, 4]: 0.5 to 1 µg/mL; MIC value used in FIG. 21 ([1]; antibiotic without V9T14 (figure legend)): 1 µg/mL; final enhancement of biofilm removal by V9T14 (E. coli CFT073 biofilm; 2 μg/mL antibiotic): 1.2 log10; enhancement of biofilm removal by V9T14 (E. coli CFT073 biofilm; 0.25-0.5 μg/mL antibiotic): 0.6 log10; biofilm reduction (E. coli CFT073 biofilm; antibiotic alone at 1 μg/mL): 3 log10; further increase of biofilm removal by V9T14 (E. coli CFT073 biofilm; for 2 μg/mL antibiotic, on top of the 0.25-0.5 μg/mL increase): 0.6 log10
O=C(O)c1cn(C2CC2)c2cc(N3CCNCC3)c(F)cc2c1=O [Ciprofloxacin, ciprofloxacin] | not modified | 8 to 16 |  | 0.25 to 0.5 |  | 0.25 to 0.5 |  |  |  |  | 6.8 | 1.4 |  |  | 
CCN1CCN(C(=O)N[C@@H](C(=O)N[C@@H]2C(=O)N3[C@@H]2SC(C)(C)[C@@H]3C(=O)O)c2ccccc2)C(=O)C1=O [Piperacillin, piperacillin] | not affected | > 32 | 32 | > 32 |  | >32 | 1 | >32 | >32 |  |  |  | no improvement | not affected | planktonic population reduction ([1]; antibiotic alone at 4 μg/mL): 2.7 log10; effect of V9T14 on biofilm killing (E. coli CFT073 biofilm; 5 μg/mL V9T14): no improvement; synergy with V9T14 (criterion ≧1 log10 decrease) (E. coli CFT073 biofilm; 24 h exposure): not able to satisfy our discrimination criterion for synergy identification
NC[C@H]1O[C@H](O[C@H]2[C@H](O)[C@@H](O[C@H]3O[C@H](CO)[C@@H](O)[C@H](N)[C@H]3O)[C@H](N)C[C@@H]2N)[C@H](N)C[C@@H]1O [Tobramycin, tobramycin] | not modified | 16 to 32 | 16 | 8 to 16 |  | 8 to 16 |  | 2 to 4 | 2 to 4 |  |  |  | no increase of activity | not modified | planktonic growth, OD650 ([1]; 4 μg/mL antibiotic alone): 0.31; planktonic growth, OD650 ([1]; 4 μg/mL antibiotic plus 5 μg/mL V9T14): 0.18; concentration giving complete eradication of planktonic population ([1]; antibiotic alone): 16 µg/mL; planktonic population reduction ([1]; antibiotic alone up to 8 μg/mL): 1 log10; increased efficacy against sessile forms by V9T14 (E. coli CFT073 biofilm; 16 μg/mL antibiotic): 1 log10; effect on mature biofilm by CLSM (Live/Dead) (E. coli CFT073 biofilm; 16 μg/mL antibiotic alone): significant killing of biofilm population; mature biofilm reduction by CLSM (Live/Dead) (E. coli CFT073 biofilm; 16 μg/mL antibiotic plus 5 μg/mL V9T14): further increased; biofilm survival subpopulation (E. coli CFT073 biofilm; antibiotic alone at 8-16 μg/mL): about 10^2 cfu/mL; biofilm decrease (E. coli CFT073 biofilm; antibiotic alone, stabilizing at 8-16 μg/mL): 4 log10
